Source: patent US20260022094A1, “Compounds for the Treatment of Neurodegenerative Diseases” (Celgene Corporation, priority 2022, published 2026)

Target: T1, S1P5 receptors (Homo sapiens, UniProt Q9H228)
T1 construct: expressed in transfected cells; host or cells: CHO cells (membranes)
Experiment: [35S]-GTPγS binding assay on CHO-S1P5 membranes (S1P5 agonism)
Assay type: biochemical
Conditions: membranes of CHO cells expressing recombinant S1P5; measure of S1P5 agonism
Method: CHO cells expressing recombinant S1P5 receptors were cultured in 500 cm^2 culture trays and, once confluent, rinsed and detached with cell-lifting buffer (10 mM HEPES, 154 mM NaCl, 6.85 mM EDTA, pH 7.4). Cells were then pelleted by centrifugation, resuspended, and homogenized in membrane preparation buffer (10 mM HEPES and 10 mM EDTA, pH 7.4) using a Polytron PT 1200E homogenizer (Kinematica, Luzern, Switzerland). Cellular proteins were pelleted by centrifugation at 48,000×g at 4° C. for 30 minutes. The resulting supernatant was discarded, and the pellet was re-suspended again in membrane preparation buffer, homogenized for a second time, and then centrifuged again as described above. The final cellular protein pellet was suspended in ice cold resuspension buffer (10 mM HEPES and 0.1 mM EDTA, pH 7.4), divided into aliquots, and stored at −80° C. until use.
Functional binding assays for [^35S]-GTPγS were performed in 96-well non-binding surface plates with a final volume of 200 μL. The test compounds were serially diluted in DMSO and added to assay plates using a Tecan D300E digital printer with a total volume of 0.4 μL. The control sphingosine-1-phosphate (SIP) was prepared separately by preparing a 400 µM stock solution from a 100 nmol pellet of S1P in 10 mM Na2CO3 with 2% β-cyclodextrin. The serial dilution of S1P was done using complete assay buffer (20 mM HEPES, 10 mM MgCl2, 100 mM NaCl, 1 mM EDTA, 0.1% fatty acid free bovine serum albumin (BSA), and 30 μg/mL saponin, pH 7.4) and transferred to wells already containing 0.4 μL DMSO. All the wells were then loaded to a total volume of 40 μL of complete assay buffer, except the non-specific binding (NSB) wells. For NSB wells, 40 μL/well of 50 μM GTPγS (Sigma Aldrich, cat #G8634, St. Louis, MO) was added to wells containing 0.4 μL of DMSO. The assay was started by the addition of 120 μL/well of CHO-SIP receptor membrane solution containing 40 μg/mL of membrane protein, 16.67 μM guanosine diphosphate (GDP; Sigma Aldrich, cat #G7127, St. Louis, MO), and 2.5 mg/mL of WGA PVT SPA beads in complete buffer. Assay plates were then sealed and incubated at room temperature with gentle agitation for 30 minutes. Next, 40 μL/well of 1 nM of [^35S]-GTPγS (PerkinElmer, cat #NEG030X^250UC, Waltham, MA) in basic assay buffer (20 mM HEPES, 10 mM MgCl2, 100 mM NaCl, and 1 mM EDTA, pH7.4) was added to the assay plates to yield a final concentration of […] and the plates were further incubated for 40 minutes at room temperature with gentle agitation. The assay was terminated by centrifugation of the plates at 1000 rpm for 3 minutes using an Eppendorf 5810R centrifuge (Eppendorf, Hamburg, Germany) and G protein bound radioactivity was quantitated using a MicroBeta2 microplate scintillation counter (PerkinElmer, Waltham, MA). As G protein bound radioactivity directly correlates to receptor activation and coupling to the G protein, this assay is a measure of S1P5 agonism.

T1 sequence (Q9H228 whole entry): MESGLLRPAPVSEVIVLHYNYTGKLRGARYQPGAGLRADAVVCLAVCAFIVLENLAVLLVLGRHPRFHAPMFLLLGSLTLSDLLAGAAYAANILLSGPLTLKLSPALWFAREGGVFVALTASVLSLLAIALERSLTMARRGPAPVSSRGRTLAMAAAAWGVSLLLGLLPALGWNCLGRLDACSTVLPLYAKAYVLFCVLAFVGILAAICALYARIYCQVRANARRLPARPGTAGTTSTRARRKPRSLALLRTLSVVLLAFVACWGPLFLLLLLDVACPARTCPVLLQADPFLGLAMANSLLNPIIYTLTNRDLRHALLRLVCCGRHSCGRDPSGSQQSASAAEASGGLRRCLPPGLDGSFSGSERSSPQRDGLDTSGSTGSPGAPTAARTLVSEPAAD

Structure (SMILES) | EC50
CC1(O)CN(Cc2ccc(C#Cc3cccc(F)c3)cc2)C1 [Compound 29, 1-(4-((3-fluorophenyl)-ethynyl)benzyl)-3-methylazetidin-3-ol] | 100 to 1000 nM
Cc1cc(CN2CC(C)(O)C2)cc(C)c1C1CN(c2c(Cl)cccc2Cl)C1 [Compound 57, 1-(4-(1-(2,6-dichlorophenyl)azetidin-3-yl)-3,5-dimethylbenzyl)-3-methylazetidin-3-ol] | 10 to 100 nM
Cc1cc(C2CN(c3c(Cl)cccc3Cl)C2)cc(C2CC2)c1CN1CC(C)(O)C1 [Compound 54, 1-(2-cyclopropyl-4-(1-(2,6-dichlorophenyl)azetidin-3-yl)-6-methylbenzyl)-3-methylazetidin-3-ol] | 10 to 100 nM
Cc1cc(C2CN(c3ccccc3F)C2)cc(C)c1CN1CC(C)(O)C1 [Compound 44, 1-(4-(1-(2-fluorophenyl)azetidin-3-yl)-2,6-dimethylbenzyl)-3-methylazetidin-3-ol] | 1000 to 10000 nM
CC1(O)CCN(Cc2ccc(N3CC(c4c(Cl)cccc4Cl)C3)cc2)CC1 [Compound 32, 1-(4-(3-(2,6-dichlorophenyl)azetidin-1-yl)benzyl)-4-methylpiperidin-4-ol] | 1000 to 10000 nM
CC1(O)CN(C2CCc3cc(C#Cc4cccc(F)c4)ccc32)C1 (single isomer, unassigned) [Compound 2b, 1-[5-[2-(3-fluorophenyl)ethynyl]indan-1-yl]-3-methyl-azetidin-3-ol] | 10 to 100 nM
CC1(O)CN(Cc2ccc(N3CC(c4c(Cl)cccc4Cl)C3)c(F)c2)C1 [Compound 67, 1-(4-(3-(2,6-dichlorophenyl)azetidin-1-yl)-3-fluorobenzyl)-3-methylazetidin-3-ol] | 10 to 100 nM
Cc1cc(CN2CC(C)(O)C2)cc(C)c1N1CC(c2c(Cl)cccc2Cl)C1 [Compound 63, 1-(4-(3-(2,6-dichlorophenyl)azetidin-1-yl)-3,5-dimethylbenzyl)-3-methylazetidin-3-ol] | 1 to 10 nM
CC1(O)CCN(C2CCc3cc(-c4ccc(C5CC5)c(Cl)c4)ccc32)C1 (stereo not shown) [Compound 7, 1-(5-(3-chloro-4-cyclopropylphenyl)-2,3-dihydro-1H-inden-1-yl)-3-methylpyrrolidin-3-ol] | 100 to 1000 nM
CC(C)c1cc(C2CN(c3c(Cl)cccc3Cl)C2)cc(C(C)C)c1CN1CC(C)(O)C1 [Compound 53, 1-(4-(1-(2,6-dichlorophenyl)azetidin-3-yl)-2,6-diisopropylbenzyl)-3-methylazetidin-3-ol] | 1000 to 10000 nM
CC1(O)CN(Cc2ccc(N3CC(c4c(Cl)cccc4Cl)C3)nc2)C1 [Compound 64, 1-((6-(3-(2,6-dichlorophenyl)azetidin-1-yl)pyridin-3-yl)methyl)-3-methylazetidin-3-ol] | 100 to 1000 nM
CCc1cc(C2CN(c3c(Cl)cccc3Cl)C2)cc(C)c1CN1CC(C)(O)C1 [Compound 51, 1-(4-(1-(2,6-dichlorophenyl)azetidin-3-yl)-2-ethyl-6-methylbenzyl)-3-methylazetidin-3-ol] | 10 to 100 nM
Cc1cc(C2CN(c3c(Cl)cccc3Cl)C2)cc(F)c1CN1CC(C)(O)C1 [Compound 48, 1-(4-(1-(2,6-dichlorophenyl)azetidin-3-yl)-2-fluoro-6-methylbenzyl)-3-methylazetidin-3-ol] | 10 to 100 nM
CC1(O)CN(C2CCc3cc(C#Cc4ccccc4F)ccc32)C1 (single isomer, unassigned) [Compound 1b, 1-[5-[2-(2-fluorophenyl)ethynyl]indan-1-yl]-3-methyl-azetidin-3-ol] | 10 to 100 nM
Cc1cc(C2CN(c3c(Cl)cccc3Cl)C2)cc(C)c1CN1CC(C)(O)C1 [Compound 35, 1-[[4-[1-(2,6-dichlorophenyl)azetidin-3-yl]-2,6-dimethyl-phenyl]methyl]-3-methyl-azetidin-3-ol] | 10 to 100 nM
CC1(O)CCN(C2CCc3cc(-c4ccc(C5CC5)c(Cl)c4)ccc32)CC1 (stereo not shown) [Compound 6, 1-(5-(3-chloro-4-cyclopropylphenyl)-2,3-dihydro-1H-inden-1-yl)-4-methylpiperidin-4-ol] | 1000 to 10000 nM
Cc1cc(C2CN(c3c(Cl)cccc3Cl)C2)cc(C)c1CN1CC(O)(C(F)F)C1 [Compound 40, 1-(4-(1-(2,6-dichlorophenyl)azetidin-3-yl)-2,6-dimethylbenzyl)-3-(difluoromethyl) azetidin-3-ol] | 100 to 1000 nM
CC1(O)CN(Cc2ccc(C3CN(c4c(Cl)cccc4Cl)C3)cn2)C1 [Compound 59, 1-((5-(1-(2,6-dichlorophenyl)azetidin-3-yl)pyridin-2-yl)methyl)-3-methylazetidin-3-ol] | 100 to 1000 nM
CC1(O)CN(Cc2ccc(C3CN(c4c(Cl)cccc4Cl)C3)c(F)c2)C1 [Compound 60, 1-(4-(1-(2,6-dichlorophenyl)azetidin-3-yl)-3-fluorobenzyl)-3-methylazetidin-3-ol] | 100 to 1000 nM
CC1(O)CN(C2CCc3cc(C#Cc4ccccc4F)ccc32)C1 (single isomer, unassigned) [Compound 1a, 1-[5-[2-(2-fluorophenyl)ethynyl]indan-1-yl]-3-methyl-azetidin-3-ol] | 10 to 100 nM

The remaining lines, values ahead:

EC50 | Structure (SMILES)
1 to 10 nM | Cc1cc2c(cc1OCc1c(Cl)cccc1Cl)CCC2N1CC(C)(O)C1 (single isomer, unassigned) [Compound 24a, 1-[5-[(2,6-dichlorophenyl)methoxy]-6-methyl-indan-1-yl]-3-methyl-azetidin-3-ol]
10 to 100 nM | Cc1cc2c(cc1CCc1c(Cl)cccc1Cl)CCC2N1CC(C)(O)C1 (single isomer, unassigned) [Compound 23a, 1-[5-[2-(2,6-dichlorophenyl)ethyl]-6-methyl-indan-1-yl]-3-methyl-azetidin-3-ol]
1 to 10 nM | Cc1cc(OCc2c(Cl)cccc2Cl)cc2c1C(N1CC(C)(O)C1)CC2 (single isomer, unassigned) [Compound 15b, 1-[5-[(2,6-dichlorophenyl)methoxy]-7-methyl-indan-1-yl]-3-methyl-azetidin-3-ol]
100 to 1000 nM | CC1(O)CN(C2CCc3cc(-c4ccc(C5CC5)c(F)c4)ccc32)C1 (single isomer, unassigned) [Compound 4b, 1-(5-(4-cyclopropyl-3-fluorophenyl)-2,3-dihydro-1H-inden-1-yl)-3-methyl azetidin-3-ol]
10 to 100 nM | Cc1cc(C#Cc2cccc(F)c2)cc2c1C(N1CC(C)(O)C1)CC2 (single isomer, unassigned) [Compound 13b, 1-[5-[2-(3-fluorophenyl)ethynyl]-7-methyl-indan-1-yl]-3-methyl-azetidin-3-ol]
1 to 10 nM | Cc1cc(CCc2c(Cl)cccc2Cl)cc2c1C(N1CC(C)(O)C1)CC2 (single isomer, unassigned) [Compound 14a, 1-[5-[2-(2,6-dichlorophenyl)ethyl]-7-methyl-indan-1-yl]-3-methyl-azetidin-3-ol]
10 to 100 nM | Cc1cc2c(cc1-c1ccc(C3CC3)c(Cl)c1)CCC2N1CC(C)(O)C1 (single isomer, unassigned) [Compound 21a, 1-[5-(3-chloro-4-cyclopropyl-phenyl)-6-methyl-indan-1-yl]-3-methyl-azetidin-3-ol]
1 to 10 nM | Cc1cc2c(cc1OCc1c(Cl)cccc1Cl)CCC2N1CC(C)(O)C1 (single isomer, unassigned) [Compound 24b, 1-[5-[(2,6-dichlorophenyl)methoxy]-6-methyl-indan-1-yl]-3-methyl-azetidin-3-ol]
1 to 10 nM | Cc1cc(-c2ccc(C3CC3)c(Cl)c2)cc2c1C(N1CC(C)(O)C1)CC2 (single isomer, unassigned) [Compound 10a, 1-[5-(3-chloro-4-cyclopropyl-phenyl)-7-methyl-indan-1-yl]-3-methyl-azetidin-3-ol]
10 to 100 nM | Cc1cc2c(cc1C#Cc1cccc(F)c1)CCC2N1CC(C)(O)C1 (single isomer, unassigned) [Compound 22b, 1-[5-[2-(3-fluorophenyl)ethynyl]-6-methyl-indan-1-yl]-3-methyl-azetidin-3-ol]
10 to 100 nM | Cc1cc(C#Cc2cccc(F)c2)cc2c1C(N1CC(C)(O)C1)CC2 (single isomer, unassigned) [Compound 13a, 1-[5-[2-(3-fluorophenyl)ethynyl]-7-methyl-indan-1-yl]-3-methyl-azetidin-3-ol]
